The test system of test [1] is gestating or lactating sows and their litters. The text has this:
(§1) From day 80 of gestation up to parturition (day 115 of gestation), and subsequently through the whole period of lactation from parturition until weaning (25 days after parturition), sows of various parities were fed a top dress of 100 g/day on top of their normal diet. […] The placebo top dress was formulated from barley, wheat, corn, wheat bran, molasses, vegetable oil, and sugar. […] The ingredient (40%) was embedded in a matrix of hydrogenated fat (50%) and calcium carbonate (10%).
(§2) During gestation, sows were fed the normal diet at approximately 3 kg/day. In lactation, all sows were fed the normal diet at an increasing level following a set feeding scheme, starting from 3 kg after parturition, and increasing by 0.5 kg each day to the maximum intake capacity of each sow. The allowance was capped at a maximum of 9 kg/day.
At parturition, piglets were weighed immediately as they were born, and again at 24 h after birth, to estimate colostrum intake based on the algorithm developed by Theil et al. (Mechanistic model to predict colostrum intake based on deuterium oxide dilution technique data and impact of gestation and prefarrowing diets on piglet intake and sow yield of colostrum. J. Anim. Sci. 2014, 92:5507-5519). One day after parturition, when 24-h weights had been recorded, litter size was standardized by cross-fostering, to 14 or 15 piglets per litter. […] As a measure of milk production, the weight gain of the litter was measured at 7 days after parturition, and again at 24 days of lactation, just before piglets were weaned. […] When analyzing the data, litter weight gain was corrected for litter size.

The subject of the next test is colostrum of sows.
Excerpt: as §1
Colostrum samples were collected just after the first piglet was born and were analyzed for total solids, protein, and lactose, using Brix refractometry. Brix refractometry is a method to measure the concentration of solutes in a solution, based on the refraction of light, and is widely used to analyze milk samples in the dairy industry (for example: Lokke M M, Engelbrecht R, Wiking L. Covariance structures of fat and protein influence the estimation of IgG in bovine colostrum. Journal of Dairy Research (2016), 83: 58-66). […] Total solids is the sum of protein, fat, and lactose.
The total output of nutrients (protein, lactose, or total solids) per sow was calculated by multiplying the volume of colostrum per sow (Table 2) with the concentration (Table 3) of each nutrient.

The test system of test [2] is gestating or lactating sows and their litters.
Excerpt: From day 109 of gestation up to parturition (day 115 of gestation), and subsequently through the whole period of lactation from parturition until weaning (25 days after parturition), sows of various parities were fed a top dress of 100 g/day on top of their normal diet. […] The placebo top dress was formulated from barley, wheat, corn, wheat bran, molasses, vegetable oil, and sugar.
as §2
At parturition, piglets were weighed immediately as they were born. One day after parturition, litter size was standardized by cross-fostering, to 14 or 15 piglets per litter. Piglets were only cross-fostered to sows within the same treatment. As a measure of milk production, the weight gain of the litter was measured at 7 days after parturition, and again at 21 days of lactation, just before piglets were weaned (24 days of lactation). […] When analyzing the data, litter weight gain was corrected for litter size.
The source holds these as a separate data set.

Setting [3] is: corrected for litter size, 4 g/day, day 80 of gestation until weaning.
Setting [4] is: piglets, 4 g/day, day 80 of gestation until weaning.
[5] abbreviates: Brix refractometry, sample just after first piglet was born.
Where [6] appears, read: volume of colostrum × concentration.

Like-named read-outs stand apart in the source and are kept apart here.

As for calcium gluconate, in test [1] (setting [3]), the “Litter weight gain d1-d7, kg per litter” value is given as 16.9 kg per litter and the “Litter weight gain d1-d24, kg per litter” value amounted to 70.0 kg per litter. Further, in test [1] (corrected for litter size, estimated from piglet weights at birth and 24 h (Theil et al.), 4 g/day calcium gluconate in fat matrix, top dress from day 80 of gestation until weaning), the “Total colostrum intake per litter” value is reported as 5565 g. Moreover, in test [1] (first seven days of lactation), the “Increase of litter weight gain compared to placebo” value was determined as 7.6%. For the same substance, in test [1] (piglets per litter), the “Litter size at weaning, difference compared to placebo” value was 0.3. In addition, the Numbers weaned in test [1] (piglets per litter, 4 g/day, day 80 of gestation until weaning) was found to be 13.2. Moreover, in test [1] (setting [4]), the “Neonatal mortality up to day 7” value came out at 8.4% and the Pre-wean mortality amounted to 9.6%. Also, in test [1] (result in words), the “Neonatal survival compared to placebo” value was “greater” and the “Survival throughout the whole lactation period compared to placebo” value is recorded as “greater”. Besides, the “Increase of litter weight gain compared to placebo” value in test [1] (whole lactation period) was found to be 5%. Besides, in the test with colostrum of sows (setting [5]), the “Concentration of solutes in colostrum: Lactose” value is 2.4% and the “Concentration of solutes in colostrum: Protein” value came to 17.5%. Also, in the test with colostrum of sows (colostrum), the “Higher output of total solids, total protein and lactose compared to placebo” value is on record as 6-10%. Moreover, the “Concentration of solutes in colostrum: Total solids” value in the test on colostrum of sows (total of fat, protein and lactose, Brix refractometry, sample just after first piglet was born) stood at 25.0%. Besides, in the test on colostrum of sows (setting [6]), the “Total output of nutrients per sow: Total lactose per sow” value is 136 g, the “Total output of nutrients per sow: Total protein per sow” value was determined as 1008 g and the “Total output of nutrients per sow: Total solids per sow” value turned out to be 1437 g. Also, the “Litter weight gain day 1-day 21” value in test [2] (4 g/day, day 109 of gestation until weaning) was 67.1 kg. Besides, the “Litter size at weaning, difference compared to placebo” value in test [2] (piglets per litter) is reported as 0.4. For the same substance, the “Survival of piglets throughout the whole lactation period compared to placebo” value in test [2] (result in words) is “greater”. The “Litter gain, difference compared to placebo” value in test [2] (when correcting for the number of piglets weaned) stood at 2.2 kg.

These data come from patent publication US20230414543A1, “METHOD OF FEEDING A GESTATING OR LACTATING ANIMAL” (NUTRECO IP ASSETS B.V., priority 2021, published 2023).
